Consider 31 molecules from patent US4130559A, “Method for the preparation of 6-aminopenicillinic acid derivatives” (priority 1977, dated 1978).

Series [1] is described as follows: Acid resistance (half-life period). It is filed as physicochemical. The note with it: acid ph 1.3, Temperature 37° C, pH 1.3, read-out: τ1/2 half-life period (acid resistance). Here is the method:
All compounds of this group were prepared in the form of sodium salts. Bactericidal activity, degree of hydrolysis with staphylococc penicillinase and acid resistance of the penicillins were determined.

A further series in a line: in vivo. As to conditions: mouse, iv.

Read-outs that look alike come from different tables or passages of the source.

On to `CC(C)Oc1ccccc1C1(C(=O)N[C@@H]2C(=O)N3[C@@H]2SC(C)(C)[C@@H]3C(=O)O)CCC1` [Compound V (Table 3)], for which the half-life in series [1] (Table 3, cyclobutyl series) amounted to 18.6 min. In the series “in vivo”, this molecule yielded an MTD of 250 mg/kg.
As for `CCCCOc1cccc(C2(C(=O)N[C@@H]3C(=O)N4[C@@H]3SC(C)(C)[C@@H]4C(=O)O)CC2)c1` [Compound XI (Table 2)], the half-life in series [1] (Table 2, cyclopropyl series) amounted to 6.2 min. For the same molecule, in the series “in vivo”, the MTD was determined as 250 mg/kg.
In the case of `CC1(C)SC2C(NC(=O)C3(c4ccccc4)CC3)C(=O)N2C1C(=O)O` (centres unmarked) [Compound I (Table 2)], the half-life in series [1] (Table 2, cyclopropyl series) is 9.9 min. Moreover, in “in vivo”, the MTD stood at 1500 mg/kg.
Turning to `CCOc1ccc(C2(C(=O)N[C@@H]3C(=O)N4[C@@H]3SC(C)(C)[C@@H]4C(=O)O)CCC2)cc1` [Compound XIII (Table 3)], the half-life in series [1] (Table 3, cyclobutyl series) was found to be 190 min. Besides, the MTD in “in vivo” is 1000 mg/kg.
Consider `COc1ccccc1C1(C(=O)NC2C(=O)N3C2SC(C)(C)C3C(=O)O)CC1` (centres unmarked) [Compound II (Table 2)], for which, in series [1] (Table 2, cyclopropyl series), the half-life was 5 min. The molecule further displayed an MTD in the series “in vivo” of 2000 mg/kg.
Taken in the same sequence, the figures for `CC(C)Oc1cccc(C2(C(=O)N[C@@H]3C(=O)N4[C@@H]3SC(C)(C)[C@@H]4C(=O)O)CC2)c1` [Compound X (Table 2)] were 10.5 min and 500 mg/kg.
Taken in the same sequence, the figures for `CCOc1ccccc1C1(C(=O)NC2C(=O)N3C2SC(C)(C)C3C(=O)O)CC1` (centres unmarked) [Compound III (Table 2)] were 6 min and 500 mg/kg.
`CC(C)Oc1ccc(C2(C(=O)N[C@@H]3C(=O)N4[C@@H]3SC(C)(C)[C@@H]4C(=O)O)CCC2)cc1` [Compound XV (Table 3)]: the half-life in series [1] (Table 3, cyclobutyl series) turned out to be 60.1 min. For the same molecule, in “in vivo”, the MTD was 500 mg/kg.
Turning to `CCCOc1ccccc1C1(C(=O)NC2C(=O)N3C2SC(C)(C)C3C(=O)O)CC1` (centres unmarked) [Compound IV (Table 2)], the half-life in series [1] (Table 2, cyclopropyl series) was found to be 5.8 min. For the same molecule, in the series “in vivo”, the MTD was determined as 500 mg/kg.
For `CCCCOc1ccccc1C1(C(=O)N[C@@H]2C(=O)N3[C@@H]2SC(C)(C)[C@@H]3C(=O)O)CCC1` [Compound VI (Table 3)], the half-life in series [1] (Table 3, cyclobutyl series) was 24.9 min. In the series “in vivo”, this molecule showed an MTD of 1000 mg/kg.
As for `CCOc1cccc(C2(C(=O)N[C@@H]3C(=O)N4[C@@H]3SC(C)(C)[C@@H]4C(=O)O)CCC2)c1` [Compound VIII (Table 3)], the half-life in series [1] (Table 3, cyclobutyl series) was 23.8 min. This molecule also gave an MTD in “in vivo” of 1500 mg/kg.
As for `CCCOc1cccc(C2(C(=O)N[C@@H]3C(=O)N4[C@@H]3SC(C)(C)[C@@H]4C(=O)O)CCC2)c1` [Compound IX (Table 3)], in series [1] (Table 3, cyclobutyl series), the half-life turned out to be 20.1 min. This molecule had an MTD in the series “in vivo” of 250 mg/kg.
As for `COc1ccc(C2(C(=O)N[C@@H]3C(=O)N4[C@@H]3SC(C)(C)[C@@H]4C(=O)O)CC2)cc1` [Compound XII (Table 2)], in series [1] (Table 2, cyclopropyl series), the half-life turned out to be 7.3 min. Besides, in “in vivo”, the MTD was 2000 mg/kg.
With `CC(C)Oc1cccc(C2(C(=O)N[C@@H]3C(=O)N4[C@@H]3SC(C)(C)[C@@H]4C(=O)O)CCC2)c1` [Compound X (Table 3)], in series [1] (Table 3, cyclobutyl series), the half-life is 17.2 min. Also, in “in vivo”, the MTD stood at 500 mg/kg.
`CC(C)Oc1ccccc1C1(C(=O)NC2C(=O)N3C2SC(C)(C)C3C(=O)O)CC1` (centres unmarked) [Compound V (Table 2)]: the half-life in series [1] (Table 2, cyclopropyl series) worked out at 6 min. Further, in the series “in vivo”, the MTD is 500 mg/kg.
As for `CCOc1cccc(C2(C(=O)NC3C(=O)N4C3SC(C)(C)C4C(=O)O)CC2)c1` (centres unmarked) [Compound VIII (Table 2)], the half-life in series [1] (Table 2, cyclopropyl series) turned out to be 7.3 min. The MTD in “in vivo” was determined as 1500 mg/kg.
For `CCCCOc1cccc(C2(C(=O)N[C@@H]3C(=O)N4[C@@H]3SC(C)(C)[C@@H]4C(=O)O)CCC2)c1` [Compound XI (Table 3)], in series [1] (Table 3, cyclobutyl series), the half-life came to 46.6 min. The molecule further gave an MTD in “in vivo” of 1000 mg/kg.
Turning to `CCCCOc1ccc(C2(C(=O)N[C@@H]3C(=O)N4[C@@H]3SC(C)(C)[C@@H]4C(=O)O)CCC2)cc1` [Compound XVI (Table 3)], the half-life in series [1] (Table 3, cyclobutyl series) was found to be 25.6 min. In the series “in vivo”, this molecule gave an MTD of 500 mg/kg.
Turning to `CCCCOc1ccc(C2(C(=O)N[C@@H]3C(=O)N4[C@@H]3SC(C)(C)[C@@H]4C(=O)O)CC2)cc1` [Compound XVI (Table 2)], the half-life in series [1] (Table 2, cyclopropyl series) amounted to 6.1 min. In the series “in vivo”, this molecule gave an MTD of 250 mg/kg.
The matching figures for `CCCOc1ccc(C2(C(=O)N[C@@H]3C(=O)N4[C@@H]3SC(C)(C)[C@@H]4C(=O)O)CC2)cc1` [Compound XIV (Table 2)]: 19.4 min and 1000 mg/kg.
`COc1ccc(C2(C(=O)N[C@@H]3C(=O)N4[C@@H]3SC(C)(C)[C@@H]4C(=O)O)CCC2)cc1` [Compound XII (Table 3)]: in series [1] (Table 3, cyclobutyl series), the half-life is 10.7 min. This molecule also had an MTD in “in vivo” of 1500 mg/kg.
The matching figures for `COc1ccccc1C1(C(=O)N[C@@H]2C(=O)N3[C@@H]2SC(C)(C)[C@@H]3C(=O)O)CCC1` [Compound II (Table 3)]: 7.7 min and 500 mg/kg.
As for `CCCOc1ccc(C2(C(=O)N[C@@H]3C(=O)N4[C@@H]3SC(C)(C)[C@@H]4C(=O)O)CCC2)cc1` [Compound XIV (Table 3)], the half-life in series [1] (Table 3, cyclobutyl series) came out at 27.3 min. Besides, the MTD in the series “in vivo” stood at 250 mg/kg.
Turning to `CCOc1ccccc1C1(C(=O)N[C@@H]2C(=O)N3[C@@H]2SC(C)(C)[C@@H]3C(=O)O)CCC1` [Compound III (Table 3)], the half-life in series [1] (Table 3, cyclobutyl series) was 19.1 min. This molecule showed an MTD in the series “in vivo” of 250 mg/kg.
Turning to `CCCCOc1ccccc1C1(C(=O)NC2C(=O)N3C2SC(C)(C)C3C(=O)O)CC1` (centres unmarked) [Compound VI (Table 2)], the half-life in series [1] (Table 2, cyclopropyl series) is 5.2 min. This molecule displayed an MTD in “in vivo” of 500 mg/kg.
As to `CCCOc1ccccc1C1(C(=O)N[C@@H]2C(=O)N3[C@@H]2SC(C)(C)[C@@H]3C(=O)O)CCC1` [Compound IV (Table 3)], in series [1] (Table 3, cyclobutyl series), the half-life was 23 min. This molecule gave an MTD in the series “in vivo” of 500 mg/kg.
Taken in the same sequence, the figures for `COc1cccc(C2(C(=O)N[C@@H]3C(=O)N4[C@@H]3SC(C)(C)[C@@H]4C(=O)O)CCC2)c1` [Compound VII (Table 3)] were 56.9 min and 1500 mg/kg.
As for `CC1(C)S[C@@H]2[C@H](NC(=O)C3(c4ccccc4)CCC3)C(=O)N2[C@H]1C(=O)O` [Compound I (Table 3)], the half-life in series [1] (Table 3, cyclobutyl series) amounted to 86.6 min. This molecule showed an MTD in the series “in vivo” of 1000 mg/kg.
As for `COc1cccc(C2(C(=O)NC3C(=O)N4C3SC(C)(C)C4C(=O)O)CC2)c1` (centres unmarked) [Compound VII (Table 2)], the half-life in series [1] (Table 2, cyclopropyl series) turned out to be 7.2 min. In “in vivo”, the MTD came out at 1500 mg/kg.
As to `CCOc1ccc(C2(C(=O)N[C@@H]3C(=O)N4[C@@H]3SC(C)(C)[C@@H]4C(=O)O)CC2)cc1` [Compound XIII (Table 2)], the half-life in series [1] (Table 2, cyclopropyl series) was 6.7 min. In addition, the MTD in the series “in vivo” stood at 2750 mg/kg.
Turning to `CCCOc1cccc(C2(C(=O)N[C@@H]3C(=O)N4[C@@H]3SC(C)(C)[C@@H]4C(=O)O)CC2)c1` [Compound IX (Table 2)], the half-life in series [1] (Table 2, cyclopropyl series) amounted to 14.5 min. In the series “in vivo”, this molecule registered an MTD of 1500 mg/kg.
